{
  "source": "patent US20250027035A1",
  "about": "“HEAVY METAL-ANTIBIOTIC MULTIPLE RESISTANT BACTERIA AND ITS APPLICATION” (priority 2023, published 2025)",
  "data": [
    {"system": "Rossellomorea oryzaecorticis ZC255", "test": "Drug sensitivity test of strains (antibiotic tolerance); for Results of drug sensitivity test of strains: key: R: resistance; S: sensitivity; I: betweenness", "format": "cell-based", "conditions": "not given", "values": [
      {"compound": "CC1(C)S[C@@H]2[C@H](NC(=O)[C@H](N)c3ccccc3)C(=O)N2[C@H]1C(=O)O", "note": "[Ampicillin]", "Results of drug sensitivity test of strains": "S"},
      {"compound": "CC1(C)S[C@@H]2[C@H](NC(=O)C(C(=O)O)c3ccccc3)C(=O)N2[C@H]1C(=O)O", "note": "(stereo partly shown) [Carbenicillin]", "Results of drug sensitivity test of strains": "S"},
      {"compound": "CO/N=C(\\C(=O)N[C@@H]1C(=O)N2C(C(=O)O)=C(COC(C)=O)CS[C@H]12)c1csc(N)n1", "note": "[Cefotaxime]", "Results of drug sensitivity test of strains": "I"},
      {"compound": "CO/N=C(\\C(=O)N[C@@H]1C(=O)N2C(C(=O)O)=C(CSc3nc(=O)c(=O)[nH]n3C)CS[C@H]12)c1csc(N)n1", "note": "[Ceftriaxone]", "Results of drug sensitivity test of strains": "R", "drug sensitivity of the strain, result in words": "drug resistance"},
      {"compound": "O=C(N[C@H](CO)[C@H](O)c1ccc([N+](=O)[O-])cc1)C(Cl)Cl", "note": "[Chloramphenicol]", "Results of drug sensitivity test of strains": "S"},
      {"compound": "CC[C@H]1OC(=O)[C@H](C)[C@@H](O[C@H]2C[C@@](C)(OC)[C@@H](O)[C@H](C)O2)[C@H](C)[C@@H](O[C@@H]2O[C@H](C)C[C@H](N(C)C)[C@H]2O)[C@](C)(OC)C[C@@H](C)C(=O)[C@H](C)[C@@H](O)[C@]1(C)O", "note": "[Clarithromycin]", "Results of drug sensitivity test of strains": "S"},
      {"compound": "CC[C@H]1OC(=O)[C@H](C)[C@@H](O[C@H]2C[C@@](C)(OC)[C@@H](O)[C@H](C)O2)[C@H](C)[C@@H](O[C@@H]2O[C@H](C)C[C@H](N(C)C)[C@H]2O)[C@](C)(O)C[C@@H](C)C(=O)[C@H](C)[C@@H](O)[C@]1(C)O", "note": "[Erythromycin]", "Results of drug sensitivity test of strains": "R", "drug sensitivity of the strain, result in words": "drug resistance"},
      {"compound": "NC[C@H]1O[C@H](O[C@H]2[C@H](O)[C@@H](O[C@H]3O[C@H](CO)[C@@H](O)[C@H](N)[C@H]3O)[C@H](N)C[C@@H]2N)[C@H](O)[C@@H](O)[C@@H]1O", "note": "[Kanamycin]", "Results of drug sensitivity test of strains": "R"},
      {"compound": "CCC[C@@H]1C[C@@H](C(=O)N[C@@H]([C@H]2O[C@H](SC)[C@H](O)[C@@H](O)[C@H]2O)[C@@H](C)O)N(C)C1", "note": "[Lincomycin]", "Results of drug sensitivity test of strains": "R", "drug sensitivity of the strain, result in words": "drug resistance"},
      {"compound": "CCn1cc(C(=O)O)c(=O)c2cc(F)c(N3CCNCC3)cc21", "note": "[Norfloxacin]", "Results of drug sensitivity test of strains": "R", "drug sensitivity of the strain, result in words": "drug resistance"},
      {"compound": "CC1COc2c(N3CCN(C)CC3)c(F)cc3c(=O)c(C(=O)O)cn1c23", "note": "(stereo not shown) [Ofloxacin]", "Results of drug sensitivity test of strains": "R"},
      {"compound": "CO[C@H]1/C=C/O[C@@]2(C)Oc3c(C)c(O)c4c(O)c(c(/C=N/N5CCN(C)CC5)c(O)c4c3C2=O)NC(=O)/C(C)=C\\C=C\\[C@H](C)[C@H](O)[C@@H](C)[C@@H](O)[C@@H](C)[C@H](OC(C)=O)[C@@H]1C", "note": "[Rifampicin]", "Results of drug sensitivity test of strains": "I"},
      {"compound": "[H]/N=C(/N)N[C@H]1[C@H](O)[C@@H](O)[C@H](O[C@@H]2O[C@@H](C)[C@](O)(C=O)[C@H]2O[C@@H]2O[C@@H](CO)[C@H](O)[C@@H](O)[C@@H]2NC)[C@@H](N/C(N)=N\\[H])[C@@H]1O", "note": "[Streptomycin]", "Results of drug sensitivity test of strains": "R", "drug sensitivity of the strain, result in words": "drug resistance"},
      {"compound": "CN(C)[C@@H]1C(O)=C(C(N)=O)C(=O)[C@@]2(O)C(O)=C3C(=O)c4c(O)cccc4[C@@](C)(O)[C@H]3C[C@@H]12", "note": "[Tetracycline]", "Results of drug sensitivity test of strains": "R"},
      {"compound": "NC[C@H]1O[C@H](O[C@H]2[C@H](O)[C@@H](O[C@H]3O[C@H](CO)[C@@H](O)[C@H](N)[C@H]3O)[C@H](N)C[C@@H]2N)[C@H](N)C[C@@H]1O", "note": "[Tobramycin]", "Results of drug sensitivity test of strains": "R", "drug sensitivity of the strain, result in words": "drug resistance"},
      {"compound": "CN[C@H](CC(C)C)C(=O)N[C@H]1C(=O)N[C@@H](CC(N)=O)C(=O)N[C@H]2C(=O)N[C@H]3C(=O)N[C@H](C(=O)N[C@H](C(=O)O)c4cc(O)cc(O)c4-c4cc3ccc4O)[C@H](O)c3ccc(c(Cl)c3)Oc3cc2cc(c3O[C@@H]2O[C@H](CO)[C@@H](O)[C@H](O)[C@H]2O[C@H]2C[C@](C)(N)[C@H](O)[C@H](C)O2)Oc2ccc(cc2Cl)[C@H]1O", "note": "[Vancomycin]", "Results of drug sensitivity test of strains": "S"},
      {"compound": "Gentamicin", "Results of drug sensitivity test of strains": "R", "drug sensitivity of the strain, result in words": "drug resistance"},
      {"compound": "Neomycin", "Results of drug sensitivity test of strains": "R", "drug sensitivity of the strain, result in words": "drug resistance"},
      {"compound": "Penicillin", "Results of drug sensitivity test of strains": "S"},
      {"compound": "Polymyxin B", "Results of drug sensitivity test of strains": "R", "drug sensitivity of the strain, result in words": "drug resistance"}
    ]},
    {"system": "Rossellomorea oryzaecorticis ZC255", "test": "Metal tolerance of the strain in 2216E liquid medium containing heavy metal", "format": "cell-based", "conditions": "2216E liquid medium containing the heavy metal", "protocol": "• Step 1: the single colonies in Embodiment 1 ‘2.1 morphological characteristics’ are selected and added to the 2216E liquid medium for 24 h to obtain the seed liquid, and then it is added to the liquid containing heavy metals or antibiotics for 48 h. • Step 2: the concentration of heavy metals/antibiotics before and after the addition of seed solution is measured by atomic absorption.\nIn addition, the highest tolerance concentration of the strain to Cd2+is 820 mg/L; the highest tolerance concentration of Zn2+, Ni2+, Pb2+and Cr3+is 2660 mg/L, 1210 mg/L, 1640 mg/L and 400 mg/L respectively.", "units": {"maximum (highest) tolerance concentration of the strain": "mg/L"}, "values": [
      {"compound": "[Cd+2]", "note": "[Cd2+]", "maximum (highest) tolerance concentration of the strain": 820},
      {"compound": "[Cr+3]", "note": "[Cr3+]", "maximum (highest) tolerance concentration of the strain": 400},
      {"compound": "[Ni+2]", "note": "[Ni2+]", "maximum (highest) tolerance concentration of the strain": 1210},
      {"compound": "[Pb+2]", "note": "[Pb2+]", "maximum (highest) tolerance concentration of the strain": 1640},
      {"compound": "[Zn+2]", "note": "[Zn2+]", "maximum (highest) tolerance concentration of the strain": 2660}
    ]}
  ]
}
